Experimental data reported in ChEMBL document CHEMBL1125190, “Synthesis and anticancer and antiviral activities of various 2'- and 3'-methylidene-substituted nucleoside analogues and crystal structure of 2'-deoxy-2'-methylidenecytidine hydrochloride” (J Med Chem, 1991).
Active and inactive are the calls of the source. The calls are words filed in the database; no cut-off is given here.

Key:
Mus musculus [1] = experiment: Death due to toxicity occurring at a maximum body weight decrease of 10 to 22% from the average post injection body weight at 25 mg/kg; 2 / 5; type: functional, organism-based; set-up: dose 25 mg/kg
Mus musculus [2] = experiment: (§1) Ratio of survival time of treated to control mice at 75 mg/kg; type: functional
CCRF-CEM [3] = experiment: Concentration required to inhibit replication of CCRF-CEM cell lines by 50% after 72 hr incubation; type: functional; conditions: Homo sapiens, read-out: ED50 (the source's name)
Mus musculus [4] = experiment: Long time survivors are the number mice that survived for >60 days relative to the number of treated mice at 50 mg/kg; 0 / 5; type: functional, organism-based; set-up: dose 50 mg/kg
L1210 [5] = experiment: Concentration required to inhibit replication of L1210 cell lines by 50% after 72 hr incubation; type: functional; conditions: Mus musculus, L1210, 72 h; read-out: ED50 (the source's name)
Mus musculus [6] = experiment: Death due to toxicity occurring at a maximum body weight decrease of 10 to 22% from the average post injection body weight at 75 mg/kg; 5 / 5; type: functional, organism-based; set-up: dose 75 mg/kg
Mus musculus [7] = experiment: Long time survivors are the number mice that survived for >60 days relative to the number of treated mice at 75 mg/kg; 0 / 5; type: functional, organism-based; set-up: dose 75 mg/kg
Mus musculus [8] = experiment: (§2) Average survival time includes only those mice that died prior to day 60 at 50 mg/kg; type: functional
Mus musculus [9] = experiment: (§3) Ratio of survival time of treated to control mice at 50 mg/kg; type: functional
P388 = experiment: Concentration required to inhibit replication of P388 cell lines by 50% after 72 hr incubation; type: functional; conditions: Mus musculus, P388, 72 h; read-out: ED50 (the source's name)
Mus musculus [10] = experiment: Death due to toxicity occurring at a maximum body weight decrease of 10 to 22% from the average post injection body weight at 50 mg/kg; 5 / 5; type: functional, organism-based; set-up: dose 50 mg/kg
Mus musculus [11] = experiment: (§4) Average survival time includes only those mice that died prior to day 60 at 25 mg/kg; type: functional
CCRF-CEM [12] = experiment: Concentration required to inhibit replication of CCRF-CEM deoxycytidine kinase deficient variant CCRF-CEM(dCK-); type: functional; conditions: Homo sapiens, read-out: ED50 (the source's name)
CCRF S-180 = experiment: Concentration required to inhibit replication of S-180 cell lines by 50% after 72 hr incubation; type: functional; conditions: Mus musculus, CCRF S-180, 72 h; read-out: ED50 (the source's name)
Mus musculus [13] = experiment: (§5) Average survival time includes only those mice that died prior to day 60 at 75 mg/kg; type: functional
Mus musculus [14] = experiment: Long time survivors are the number mice that survived for >60 days relative to the number of treated mice 25 mg/kg; 0 / 5; type: functional, organism-based; set-up: dose 25 mg/kg
Mus musculus [15] = experiment: (§6) Ratio of survival time of treated to control mice at 25 mg/kg; type: functional
HSV-2 = experiment: Concentration required to inhibit 90% of virus yield during 24-h growth period in HSV-2 cell lines; type: functional, Human alphaherpesvirus 2
Human alphaherpesvirus 1 = experiment: Concentration required to inhibit 90% of virus yield during 24-h growth period in HSV-1 cell lines; type: functional
L1210 [16] = experiment: as §6; type: functional, Mus musculus
L1210 [17] = experiment: as §1; type: functional, Mus musculus
L1210 [18] = experiment: as §4; type: functional, Mus musculus
L1210 [19] = experiment: as §2; type: functional, Mus musculus
L1210 [20] = experiment: as §3; type: functional, Mus musculus
L1210 [21] = experiment: as §5; type: functional, Mus musculus
Mus musculus [22] = experiment: T/C*100 represents the ratio of survival time of treated to control mice *100 at 75 mg/kg; type: functional
Mus musculus [23] = experiment: T/C*100 represents the ratio of survival time of treated to control mice *100 at 50 mg/kg; type: functional

Structure (SMILES)	EC50 (CCRF-CEM [3])	EC50 (L1210 [5])	EC50 (P388)	EC50 (CCRF-CEM [12])	EC50 (CCRF S-180)	ID90 (HSV-2)	ID90 (Human alphaherpesvirus 1)	also measured
Nc1ccn([C@@H]2O[C@H](CO)[C@@H](O)[C@@H]2O)c(=O)n1 [CYTARABINE]	0.006 µM	0.05 µM	0.02 µM	120 µM	0.2 µM	–	–	Toxic deaths (Mus musculus [1]): Partially active; T/C (Mus musculus [2]): 111; Long-term survivors (Mus musculus [4]): inactive; Toxic deaths (Mus musculus [6]): Active; Long-term survivors (Mus musculus [7]): inactive; Average survival (days) (Mus musculus [8]): 9.6; T/C (Mus musculus [9]): 126; Toxic deaths (Mus musculus [10]): Active; Average survival (days) (Mus musculus [11]): 19.7; Average survival (days) (Mus musculus [13]): 8.4; Long-term survivors (Mus musculus [14]): inactive; T/C (Mus musculus [15]): 258
C=C1[C@H](n2cc(F)c(=O)[nH]c2=O)O[C@H](CO)[C@H]1O	30 µM	22 µM	> 100 µM	–	6.5 µM	>250 µM	>250 µM	–
C=C1C(CO)OC(n2ccc(N)nc2=O)C1O (stereo not given)	> 100 µM	> 100 µM	> 100 µM	–	> 100 µM	>250 µM	>250 µM	–
C=C1[C@H](n2cc(C)c(N)nc2=O)O[C@H](CO)[C@H]1O	22 µM	> 100 µM	> 100 µM	–	> 100 µM	125 µM	32 µM	–
C=C1C(CO)OC(n2ccc(=O)[nH]c2=O)C1O (stereo not given)	> 100 µM	> 100 µM	> 100 µM	–	> 100 µM	–	–	–
C=C1[C@H](n2cc(F)c(N)nc2=O)O[C@H](CO)[C@H]1O	0.05 µM	1.2 µM	0.6 µM	330 µM	1.5 µM	5 µM	50 µM	T/C (L1210 [16]): 316; T/C (L1210 [17]): 243; Average survival (days) (L1210 [18]): 24; Average survival (days) (L1210 [19]): 21.2; T/C (L1210 [20]): 279; Average survival (days) (L1210 [21]): 18.5
C=C1C(n2ccc(N)nc2=O)O[C@H](CO)[C@@H]1O (stereo not given in full)	0.03 µM	0.3 µM	0.4 µM	77 µM	1.5 µM	5 µM	26 µM	Average survival (days) (Mus musculus [8]): 21; T/C (Mus musculus [22]): 273; Average survival (days) (Mus musculus [11]): 21.6; Average survival (days) (Mus musculus [13]): 20.8; T/C (Mus musculus [23]): 276; T/C (Mus musculus [15]): 284
C=C1[C@H](n2ccc(=O)[nH]c2=O)O[C@H](CO)[C@H]1O	> 100 µM	> 100 µM	> 100 µM	–	> 100 µM	50 µM	50 µM	–
C=C1[C@H](n2cc(C)c(=O)[nH]c2=O)O[C@H](CO)[C@H]1O	10 µM	> 100 µM	> 100 µM	–	> 100 µM	–	–	–
